Our source for the IC50 cell viability values is the supplement of paper PMC5762512.

The structures appear in SMILES notation.

Assay in all cases: IC50 cell viability (Alamar Blue, 96 h)
On the technique in general: Alamar Blue is a resazurin reagent that responds to reducing activity.

The test system of assay [1] is 10326. Here is the method: (§1)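 Cells in log-phase growth were seeded in 96-well plates and treated with drug for 96 h at 37°C using 8-point serial dilutions from 0.0025 to 10 µM. Viability was read by Alamar Blue fluorescence after 6 h and normalised to positive and vehicle (DMSO) controls. IC50 values were fitted in ActivityBase; the value given is the mean of two independent experiments.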

The subject of assay [2] is 11060. Here is the method: as §1
The subject of assay [3] is 14169. Here is the method:
as §1

In assay [4] the test system is 8645. Here is the method: as §1
In assay [5] the test system is A549. Here is the method:
as §1

Assay [6] has as its system CAKI-1. Here is the method: as §1
The test system of assay [7] is HCC2429. Here is the method: as §1
Assay [8] deals with HS-27. Here is the method:
as §1

Assay [9] has as its system P896-CL. Here is the method: as §1
In assay [10] the test system is PER-403. Here is the method:
as §1

Assay [11] concerns PER-535. Here is the method: as §1
Assay [12] concerns PER-536. Here is the method: as §1
The subject of assay [13] is PER-624. Here is the method: as §1
Assay [14] relates to PER-704. Here is the method: as §1
Assay [15] has as its system PER-712. Here is the method: as §1
In assay [16] the test system is PER-891. Here is the method: as §1
The subject of assay [17] is RPMI2650. Here is the method:
as §1

Assay [18] concerns TC797. Here is the method:
as §1

The test system of assay [19] is TY82. Here is the method: as §1
Assay [20] relates to WI-38. Here is the method: as §1

Consider `Cc1sc2c(c1C)C(c1ccc(Cl)cc1)=N[C@@H](CC(=O)Nc1ccc(O)cc1)c1nnc(C)n1-2` [OTX-015], for which the IC50 cell viability in [1] worked out at 6.97 nM; in assay [2] it was 194 nM; in assay [3], 35.1 nM; in assay [4] it was 73.6 nM; in [5], 784 nM; in [6] it was 9360 nM. Also, the IC50 cell viability in assay [7] was determined as 55.8 nM; in [8], 2450 nM; in [9], 921 nM; in assay [10] it was 42.6 nM; in assay [11], 622 nM; in assay [12] it was 4260 nM. The IC50 cell viability in [13] was 4270 nM; in assay [14] it was 440 nM; in [15] it was 939 nM; in [16], 6720 nM; in assay [17] it was over 10000 nM; in assay [18], over 10000 nM. Besides, the IC50 cell viability in assay [19] worked out at 137 nM; in assay [20], 543 nM.
In the case of `COc1ccccc1S(=O)(=O)Nc1ccc2c(c1)CN(C)C(=O)N2` [PFI-1], the IC50 cell viability in assay [1] turned out to be 175 nM; in [2], 804 nM; in assay [3], 444 nM; in [4] it was 751 nM; in assay [5], 287 nM; in [6], 7020 nM. Further, the IC50 cell viability amounted to 551 nM in assay [7]; 2940 nM in assay [8]; 2810 nM in assay [9]; 623 nM in assay [10]; 2190 nM in assay [11]; 5980 nM in [12]. Further, the IC50 cell viability is 2820 nM in [13]; 2160 nM in [14]; 1350 nM in assay [15]; 5220 nM in assay [16]; over 10000 nM in assay [17]; over 10000 nM in assay [18]. The IC50 cell viability is 1580 nM in [19] and 3340 nM in assay [20].
For `Cc1cc(/C=C/c2ccc3cc(N(C)C)ccc3[n+]2C)c(C)n1-c1ccccc1` [Pyrvinium pamoate], the IC50 cell viability in assay [1] amounted to 230 nM; in [2] it was 167 nM; in assay [3], 249 nM; in [4], 268 nM; in assay [5] it was 95 nM; in [6], 906 nM. The IC50 cell viability in assay [7] was 173 nM; in [8], 263 nM; in [9] it was 304 nM; in assay [10] it was 199 nM; in assay [11], 260 nM; in assay [12], 261 nM. Also, the IC50 cell viability in assay [13] is 188 nM; in assay [14], 198 nM; in [15], 277 nM; in assay [16], 396 nM; in assay [17], 421 nM; in assay [18] it was 165 nM. Further, the results for the IC50 cell viability in assay [19] and in [20] were 206 nM and 256 nM, respectively.
Regarding `CC[C@@]1(O)C(=O)OCc2c1cc1n(c2=O)Cc2cc3c(CN(C)C)c(O)ccc3nc2-1` [Topotecan], the IC50 cell viability in assay [1] amounted to 13.3 nM; in [2] it was 14.6 nM; in [3], 17.7 nM; in assay [4], 17.4 nM; in [5], 118 nM; in assay [6], 622 nM. In addition, the IC50 cell viability in [7] was found to be 17.5 nM; in [8] it was 4570 nM; in assay [9] it was 272 nM; in assay [10] it was 5.01 nM; in assay [11], 107 nM; in assay [12], 81.6 nM. The IC50 cell viability in assay [13] was determined as 11.7 nM; in assay [14], 312 nM; in assay [15], 243 nM; in [16], 728 nM; in assay [17], 391 nM; in [18], 24.3 nM. In addition, the IC50 cell viability was found to be 116 nM in [19] and 2480 nM in [20].
For `CC[C@]1(O)C[C@H]2CN(CCc3c([nH]c4ccccc34)[C@@](C(=O)OC)(c3cc4c(cc3OC)N(C=O)[C@H]3[C@@](O)(C(=O)OC)[C@H](OC(C)=O)[C@]5(CC)C=CCN6CC[C@]43[C@@H]65)C2)C1` [Vincristine], the IC50 cell viability was under 2.5 nM in [1]; under 2.5 nM in assay [2]; under 2.5 nM in assay [3]; under 2.5 nM in [4]; 6.14 nM in assay [5]; 5020 nM in [6]. The IC50 cell viability is under 2.5 nM in [7]; 7.19 nM in assay [8]; 8.77 nM in assay [9]; under 2.5 nM in assay [10]; 6.92 nM in [11]; 20.7 nM in assay [12]. For the same compound, the IC50 cell viability in [13] was 7.58 nM; in assay [14] it was 6.18 nM; in [15], 8.68 nM; in assay [16], 27.5 nM; in assay [17], over 10000 nM; in assay [18] it was 5.35 nM. The IC50 cell viability in [19] turned out to be 8.25 nM; in [20], 8.35 nM.
`O=C(CCCCCCC(=O)Nc1ccccc1)NO` [Vorinostat]: the IC50 cell viability came to 514 nM in assay [1]; 2740 nM in assay [2]; 1220 nM in [3]; 561 nM in assay [4]; 2070 nM in assay [5]; 4100 nM in [6]. Moreover, the IC50 cell viability is 1170 nM in [7]; 4290 nM in assay [8]; 3190 nM in [9]; 732 nM in [10]; 2440 nM in [11]; over 10000 nM in [12]. The IC50 cell viability in assay [13] is 1540 nM; in [14], 2140 nM; in [15] it was 3450 nM; in assay [16], over 10000 nM; in [17] it was 5840 nM; in assay [18], 7210 nM. The IC50 cell viability in [19] was 2240 nM; in assay [20], 4450 nM.
